According to patent US20240059671A1, “TYROSINE KINASE 2 (TYK2) DEGRADATION COMPOUNDS AND METHODS OF USE” (CULLGEN (SHANGHAI), INC., priority 2020, published 2024):

Molecular target: TYK2 (Homo sapiens, UniProt P29597)
Assay: TYK2 protein degradation in MOLT-4 cells by immunoblotting
Assay type: cell-based
Parameters: endogenous in cells; host or cells: MOLT-4
Details: MOLT-4 cells, 24 hours
In short: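 MOLT-4 cells were exposed to compounds at 0.5 and 5 μM for 24 h, then lysed in RIPA buffer with protease and phosphatase inhibitors. TYK2 was detected by SDS-PAGE immunoblot with chemiluminescence, and band densitometry gave percent degradation.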

TYK2, sequence (P29597 whole entry): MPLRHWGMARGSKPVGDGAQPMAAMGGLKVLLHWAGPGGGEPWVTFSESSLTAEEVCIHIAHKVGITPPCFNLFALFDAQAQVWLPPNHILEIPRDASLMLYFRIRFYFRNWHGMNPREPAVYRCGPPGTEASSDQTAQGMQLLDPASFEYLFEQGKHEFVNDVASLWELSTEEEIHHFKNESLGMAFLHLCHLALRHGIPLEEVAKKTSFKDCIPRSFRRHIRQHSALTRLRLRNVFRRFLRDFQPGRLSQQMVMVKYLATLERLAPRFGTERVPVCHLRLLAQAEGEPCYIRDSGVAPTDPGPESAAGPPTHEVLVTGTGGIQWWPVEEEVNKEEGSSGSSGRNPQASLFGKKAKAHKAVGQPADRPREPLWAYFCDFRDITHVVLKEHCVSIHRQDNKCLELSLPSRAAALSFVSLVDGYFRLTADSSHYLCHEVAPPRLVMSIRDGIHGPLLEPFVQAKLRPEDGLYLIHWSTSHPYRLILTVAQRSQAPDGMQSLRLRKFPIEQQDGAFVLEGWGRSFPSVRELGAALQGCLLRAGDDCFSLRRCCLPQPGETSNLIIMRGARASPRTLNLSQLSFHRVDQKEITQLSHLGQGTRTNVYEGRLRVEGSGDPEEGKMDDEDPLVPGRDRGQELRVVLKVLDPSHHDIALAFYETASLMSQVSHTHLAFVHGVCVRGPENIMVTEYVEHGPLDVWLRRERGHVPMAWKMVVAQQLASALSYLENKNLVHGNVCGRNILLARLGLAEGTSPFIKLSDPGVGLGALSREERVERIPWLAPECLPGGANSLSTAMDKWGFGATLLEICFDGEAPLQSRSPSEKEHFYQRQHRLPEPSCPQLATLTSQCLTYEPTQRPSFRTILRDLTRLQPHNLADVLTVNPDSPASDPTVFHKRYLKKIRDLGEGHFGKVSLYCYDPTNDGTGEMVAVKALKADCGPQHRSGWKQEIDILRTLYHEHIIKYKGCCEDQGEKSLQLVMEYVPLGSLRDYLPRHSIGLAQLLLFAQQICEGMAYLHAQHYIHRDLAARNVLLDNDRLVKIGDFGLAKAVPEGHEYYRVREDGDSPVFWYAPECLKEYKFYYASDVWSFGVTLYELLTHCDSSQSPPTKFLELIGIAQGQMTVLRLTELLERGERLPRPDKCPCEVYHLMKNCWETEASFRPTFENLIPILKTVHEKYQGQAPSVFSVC

Structure (SMILES)	TYK2 Degradation (0.5 μM) [%]	TYK2 Degradation (5 μM) [%]
CNC(=O)c1nnc(NC(=O)CNC(=O)CNc2cccc3c2C(=O)N(C2CCC(=O)NC2=O)C3=O)cc1Nc1cccc(-c2ncn(C)n2)c1OC (centres unmarked) [CPD-042, 6-(2-(2-((2-(2,6-Dioxopiperidin-3-yl)-1,3-dioxoisoindolin-4-yl)amino)acetamido)acetamido)-4-((2-methoxy-3-(1-methyl-1H-1,2,4-triazol-3-yl)phenyl)amino)-N-methylpyridazine-3-carboxamide]	≤20	≤20
CNC(=O)c1nnc(NC(=O)CNC(=O)CCCCNc2cccc3c2C(=O)N(C2CCC(=O)NC2=O)C3=O)cc1Nc1cccc(-c2ncn(C)n2)c1OC (centres unmarked) [CPD-045, 6-(2-(5-((2-(2,6-Dioxopiperidin-3-yl)-1,3-dioxoisoindolin-4-yl)amino)pentanamido)acetamido)-4-((2-methoxy-3-(1-methyl-1H-1,2,4-triazol-3-yl)phenyl)amino)-N-methylpyridazine-3-carboxamide]	40	≤20
CNC(=O)c1nnc(NC(=O)CNC(=O)CCCCCNc2cccc3c2C(=O)N(C2CCC(=O)NC2=O)C3=O)cc1Nc1cccc(-c2ncn(C)n2)c1OC (centres unmarked) [CPD-046, 6-(2-(6-((2-(2,6-Dioxopiperidin-3-yl)-1,3-dioxoisoindolin-4-yl)amino)hexanamido)acetamido)-4-((2-methoxy-3-(1-methyl-1H-1,2,4-triazol-3-yl)phenyl)amino)-N-methylpyridazine-3-carboxamide]	≤20	≤20
CNC(=O)c1nnc(NC(=O)CNC(=O)CCCCCCNc2cccc3c2C(=O)N(C2CCC(=O)NC2=O)C3=O)cc1Nc1cccc(-c2ncn(C)n2)c1OC (centres unmarked) [CPD-047, 6-(2-(7-((2-(2,6-dioxopiperidin-3-yl)-1,3-dioxoisoindolin-4-yl)amino)heptanamido)acetamido)-4-((2-methoxy-3-(1-methyl-H-1,2,4-triazol-3-yl)phenyl)amino)-N-methylpyridazine-3-carboxamide]	60	≤20
CNC(=O)c1nnc(NC(=O)CNC(=O)CCCCCCCNc2cccc3c2C(=O)N(C2CCC(=O)NC2=O)C3=O)cc1Nc1cccc(-c2ncn(C)n2)c1OC (centres unmarked) [CPD-048, 6-(2-(8-((2-(2,6-Dioxopiperidin-3-yl)-1,3-dioxoisoindolin-4-yl)amino)octanamido)acetamido)-4-((2-methoxy-3-(1-methyl-1H-1,2,4-triazol-3-yl)phenyl)amino)-N-methylpyridazine-3-carboxamide]	50	≤20
CNC(=O)c1nnc(NC(=O)CNC(=O)CCOCCOCCOCCOCCOCCNc2cccc3c2C(=O)N(C2CCC(=O)NC2=O)C3=O)cc1Nc1cccc(-c2ncn(C)n2)c1OC (centres unmarked) [CPD-053, 6-(1-((2-(2,6-Dioxopiperidin-3-yl)-1,3-dioxoisoindolin-4-yl)amino)-18-oxo-3,6,9,12,15-pentaoxa-19-azahenicosan-21-amido)-4-((2-methoxy-3-(1-methyl-1H-1,2,4-triazol-3-yl)phenyl)amino)-N-methylpyridazine-3-carboxamide]	≤20	≤20
CNC(=O)c1nnc(NC(=O)CNC(=O)CNc2ccc3c(c2)C(=O)N(C2CCC(=O)NC2=O)C3=O)cc1Nc1cccc(-c2ncn(C)n2)c1OC (centres unmarked) [CPD-054, 6-(2-(2-((2-(2,6-Dioxopiperidin-3-yl)-1,3-dioxoisoindolin-5-yl)amino)acetamido)acetamido)-4-((2-methoxy-3-(1-methyl-1H-1,2,4-triazol-3-yl)phenyl)amino)-N-methylpyridazine-3-carboxamide]	≤20	≤20
CNC(=O)c1nnc(NC(=O)CNC(=O)CCNc2ccc3c(c2)C(=O)N(C2CCC(=O)NC2=O)C3=O)cc1Nc1cccc(-c2ncn(C)n2)c1OC (centres unmarked) [CPD-055, 6-(2-(3-((2-(2,6-Dioxopiperidin-3-yl)-1,3-dioxoisoindolin-5-yl)amino)propanamido)acetamido)-4-((2-methoxy-3-(1-methyl-1H-1,2,4-triazol-3-yl)phenyl)amino)-N-methylpyridazine-3-carboxamide]	≤20	≤20
CNC(=O)c1nnc(NC(=O)CNC(=O)CCCNc2ccc3c(c2)C(=O)N(C2CCC(=O)NC2=O)C3=O)cc1Nc1cccc(-c2ncn(C)n2)c1OC (centres unmarked) [CPD-056, 6-(2-(4-((2-(2,6-Dioxopiperidin-3-yl)-1,3-dioxoisoindolin-5-yl)amino)butanamido)acetamido)-4-((2-methoxy-3-(1-methyl-1H-1,2,4-triazol-3-yl)phenyl)amino)-N-methylpyridazine-3-carboxamide]	≤20	≤20
CNC(=O)c1nnc(NC(=O)CNC(=O)CCCCNc2ccc3c(c2)C(=O)N(C2CCC(=O)NC2=O)C3=O)cc1Nc1cccc(-c2ncn(C)n2)c1OC (centres unmarked) [CPD-057, 6-(2-(5-((2-(2,6-Dioxopiperidin-3-yl)-1,3-dioxoisoindolin-5-yl)amino)pentanamido)acetamido)-4-((2-methoxy-3-(1-methyl-1H-1,2,4-triazol-3-yl)phenyl)amino)-N-methylpyridazine-3-carboxamide]	≤20	≤20
CNC(=O)c1nnc(NC(=O)CNC(=O)CCCCCNc2ccc3c(c2)C(=O)N(C2CCC(=O)NC2=O)C3=O)cc1Nc1cccc(-c2ncn(C)n2)c1OC (centres unmarked) [CPD-058, 6-(2-(6-((2-(2,6-Dioxopiperidin-3-yl)-1,3-dioxoisoindolin-5-yl)amino)hexanamido)acetamido)-4-((2-methoxy-3-(1-methyl-1H-1,2,4-triazol-3-yl)phenyl)amino)-N-methylpyridazine-3-carboxamide]	≤20	≤20
CNC(=O)c1nnc(NC(=O)CNC(=O)CCCCCCNc2ccc3c(c2)C(=O)N(C2CCC(=O)NC2=O)C3=O)cc1Nc1cccc(-c2ncn(C)n2)c1OC (centres unmarked) [CPD-059, 6-(2-(7-((2-(2,6-Dioxopiperidin-3-yl)-1,3-dioxoisoindolin-5-yl)amino)heptanamido)acetamido)-4-((2-methoxy-3-(1-methyl-1H-1,2,4-triazol-3-yl)phenyl)amino)-N-methylpyridazine-3-carboxamide]	≤20	≤20
CNC(=O)c1nnc(NC(=O)CNC(=O)CCCCCCCNc2ccc3c(c2)C(=O)N(C2CCC(=O)NC2=O)C3=O)cc1Nc1cccc(-c2ncn(C)n2)c1OC (centres unmarked) [CPD-060, 6-(2-(8-((2-(2,6-Dioxopiperidin-3-yl)-1,3-dioxoisoindolin-5-yl)amino)octanamido)acetamido)-4-((2-methoxy-3-(1-methyl-1H-1,2,4-triazol-3-yl)phenyl)amino)-N-methylpyridazine-3-carboxamide]	≤20	≤20

The next lines start with the values.

TYK2 Degradation (0.5 μM) [%]	TYK2 Degradation (5 μM) [%]	Structure (SMILES)
≤20	≤20	CNC(=O)c1nnc(NC(=O)CNC(=O)CCNc2cccc3c2C(=O)N(C2CCC(=O)NC2=O)C3=O)cc1Nc1cccc(-c2ncn(C)n2)c1OC (centres unmarked) [CPD-043, 6-(2-(3-((2-(2,6-Dioxopiperidin-3-yl)-1,3-dioxoisoindolin-4-yl)amino)propanamido)acetamido)-4-((2-methoxy-3-(1-methyl-1H-1,2,4-triazol-3-yl)phenyl)amino)-N-methylpyridazine-3-carboxamide]
≤20	≤20	CNC(=O)c1nnc(NC(=O)CNC(=O)CCCNc2cccc3c2C(=O)N(C2CCC(=O)NC2=O)C3=O)cc1Nc1cccc(-c2ncn(C)n2)c1OC (centres unmarked) [CPD-044, 6-(2-(4-((2-(2,6-Dioxopiperidin-3-yl)-1,3-dioxoisoindolin-4-yl)amino)butanamido)acetamido)-4-((2-methoxy-3-(1-methyl-1H-1,2,4-triazol-3-yl)phenyl)amino)-N-methylpyridazine-3-carboxamide]
≤20	≤20	CNC(=O)c1nnc(NC(=O)CNC(=O)CCOCCNc2cccc3c2C(=O)N(C2CCC(=O)NC2=O)C3=O)cc1Nc1cccc(-c2ncn(C)n2)c1OC (centres unmarked) [CPD-049, 6-(2-(3-(2-((2-(2,6-Dioxopiperidin-3-yl)-1,3-dioxoisoindolin-4-yl)amino)ethoxy)propanamido)acetamido)-4-((2-methoxy-3-(1-methyl-1H-1,2,4-triazol-3-yl)phenyl)amino)-N-methylpyridazine-3-carboxamide]
≤20	≤20	CNC(=O)c1nnc(NC(=O)CNC(=O)CCOCCOCCNc2cccc3c2C(=O)N(C2CCC(=O)NC2=O)C3=O)cc1Nc1cccc(-c2ncn(C)n2)c1OC (centres unmarked) [CPD-050, 6-(2-(3-(2-(2-((2-(2,6-Dioxopiperidin-3-yl)-1,3-dioxoisoindolin-4-yl)amino)ethoxy)ethoxy)propanamido)acetamido)-4-((2-methoxy-3-(1-methyl-1H-1,2,4-triazol-3-yl)phenyl)amino)-N-methylpyridazine-3-carboxamide]
≤20	≤20	CNC(=O)c1nnc(NC(=O)CNC(=O)CCOCCOCCOCCNc2cccc3c2C(=O)N(C2CCC(=O)NC2=O)C3=O)cc1Nc1cccc(-c2ncn(C)n2)c1OC (centres unmarked) [CPD-051, 6-(1-((2-(2,6-Dioxopiperidin-3-yl)-1,3-dioxoisoindolin-4-yl)amino)-12-oxo-3,6,9-trioxa-13-azapentadecan-15-amido)-4-((2-methoxy-3-(1-methyl-1H-1,2,4-triazol-3-yl)phenyl)amino)-N-methylpyridazine-3-carboxamide]
≤20	≤20	CNC(=O)c1nnc(NC(=O)CNC(=O)CCOCCOCCOCCOCCNc2cccc3c2C(=O)N(C2CCC(=O)NC2=O)C3=O)cc1Nc1cccc(-c2ncn(C)n2)c1OC (centres unmarked) [CPD-052, 6-(1-((2-(2,6-Dioxopiperidin-3-yl)-1,3-dioxoisoindolin-4-yl)amino)-15-oxo-3,6,9,12-tetraoxa-16-azaoctadecan-18-amido)-4-((2-methoxy-3-(1-methyl-1H-1,2,4-triazol-3-yl)phenyl)amino)-N-methylpyridazine-3-carboxamide]
